Results as given in PMC9007951, “Systematically evaluating DOTATATE and FDG as PET immuno-imaging tracers of cardiovascular inflammation” (Scientific Reports, 2022).
Like-named read-outs stand apart in the source and are kept apart here.

Legend:
[1] = Organ biodistribution of [^68Ga]Ga-DOTATATE by ex vivo gamma counting; assay type: in vivo, New Zealand White rabbits; details: male, New Zealand White, rabbit, 190 MBq, total radioactivity, 200 min after tracer injection, median (IQR)
Description: Adopting a translational approach, the rabbit studies were performed with the [^68Ga]Ga-labeled tracer, which is already being used in the clinic. [^68Ga]Ga-DOTATATE was purchased from Advanced Accelerator Applications (AAA, Millburn, NJ, USA). To determine its pharmacokinetics, three atherosclerotic rabbits and two healthy controls were injected with approximately 190 MBq of [^68Ga]Ga-DOTATATE. Venous blood was sampled at 1, 5, 10, 15, 20, 30, 60, 120, 180, 240 and 300 min after injection through the ear vein. Samples were weighed and gamma counted. Blood half-life data were fitted using a two-phase decay non-linear regression using GraphPad Prism v8.4.3 (Supplementary Table S1). To investigate the tracer blood distribution, blood samples were centrifuged at 2000 g for 15 min at 4 °C to determine the radioactivity concentration in the plasma and cellular fractions. To analyze [^68Ga]Ga-DOTATATE biodistribution, all rabbits were euthanized after the last imaging time-point using an injection of pentobarbital 100 mg/kg and exsanguination of the portal vein. Rabbits were extensively perfused with 1000 mL of saline. Following, tissues (blood, heart, aorta, liver, kidney, skeletal muscle, small and large intestine, fat, stomach, pancreas and bladder) were harvested, weighed and gamma counted.

[2] = [^64Cu]Cu-DOTATATE distribution in blood fractions (plasma vs cells); assay type: in vivo, mice; details: 120 min after radiotracer injection, mean ± SEM, N = 5
Description: Wild-type and atherosclerotic animals were injected with approximately 1.85 MBq of [^64Cu]Cu-DOTATATE and euthanized at either 1, 5, 15, 30, 60 or 120 min after injection (Supplementary Fig. S1A) to evaluate the tracer’s biodistribution. After euthanasia, an insulin syringe was used to collect blood samples from the right ventricle. Blood samples were used for the establishment of pharmacokinetics profile. Mice were then perfused with 20 mL of phosphate-buffered saline (PBS) and tissues of interest (heart, aorta, bone marrow, spleen, liver, stomach, bladder, kidneys, intestines, lungs, adrenal gland, muscles and pancreas) were harvested. Tissues were blotted for gamma counting on a Wizard2 2480 automatic gamma counter (Perkin Elmer, Waltham, MA). Values were corrected for decay and normalized to tissue weight to express radioactivity concentration as percentage injected dose per gram (%ID/g). […] To investigate the tracer’s distribution within different blood compartments, after gamma counting, 100 μL of blood were spun down at 2000 g for 15 min at 4 °C. Plasma (supernatant) and cells (pellet) were gamma counted and expressed as percentage of total activity. […] Percentage of activity in mononuclear and polynuclear cells was calculated.

[3] = Blood half-life of [^64Cu]Cu-DOTATATE, gamma counting of blood, two-phase decay fit; assay type: in vivo, mice; details: for %fast: two-phase decay fit of blood radioactivity over 120 min; for %slow / Weighed t1/2 (weighted blood half-life) / t1/2 fast / t1/2 slow: two-phase decay fit
Description: (§1) Wild-type and atherosclerotic animals were injected with approximately 1.85 MBq of [^64Cu]Cu-DOTATATE and euthanized at either 1, 5, 15, 30, 60 or 120 min after injection (Supplementary Fig. S1A) to evaluate the tracer’s biodistribution. After euthanasia, an insulin syringe was used to collect blood samples from the right ventricle. Blood samples were used for the establishment of pharmacokinetics profile. Mice were then perfused with 20 mL of phosphate-buffered saline (PBS) and tissues of interest (heart, aorta, bone marrow, spleen, liver, stomach, bladder, kidneys, intestines, lungs, adrenal gland, muscles and pancreas) were harvested. Tissues were blotted for gamma counting on a Wizard2 2480 automatic gamma counter (Perkin Elmer, Waltham, MA). Values were corrected for decay and normalized to tissue weight to express radioactivity concentration as percentage injected dose per gram (%ID/g). […] To investigate the tracer’s distribution within different blood compartments, after gamma counting, 100 μL of blood were spun down at 2000 g for 15 min at 4 °C. Plasma (supernatant) and cells (pellet) were gamma counted and expressed as percentage of total activity. The remainder of the blood was separated using Lymphoprep density gradient medium (Nycomed Pharma, Zurich, Switzerland) following manufacturer’s instructions. Percentage of activity in mononuclear and polynuclear cells was calculated.

[4] = Ex vivo gamma counting of whole aorta after PET/CT; assay type: in vivo, mice; details: female, mouse, iv, 5.55 MBq, total radioactivity, median, N = 4
Description: as §1, with “S1A)” for “Wild-type and atherosclerotic animals were injected with approximately 1.85 MBq of [^64Cu]Cu-DOTATATE and euthanized at either 1, 5, 15, 30, 60 or 120 min after injection (Supplementary Fig. S1A)”, “calculated. […]” for “calculated.”

SMILES: C[C@@H](O)[C@H](NC(=O)[C@@H]1CSSC[C@H](NC(=O)[C@@H](Cc2ccccc2)NC(=O)CN2CCN(CC(=O)O)CCN(CC(=O)O)CCN(CC(=O)O)CC2)C(=O)N[C@@H](Cc2ccc(O)cc2)C(=O)N[C@H](Cc2c[nH]c3ccccc23)C(=O)N[C@@H](CCCCN)C(=O)N[C@@H]([C@@H](C)O)C(=O)N1)C(=O)O [[^68Ga]Ga-DOTATATE, metal not drawn]
- tissue uptake at 200 min ([1]; abdominal aorta, iv, male athero4mo rabbits, N = 9, read-out: Tissue radioactivity, abdominal aorta): 0.017 %ID/g
- tissue uptake at 200 min ([1]; abdominal aorta, iv, male control rabbits, N = 6, read-out: Tissue radioactivity, abdominal aorta): 0.006 %ID/g
- tissue uptake at 200 min ([1]; adrenal gland, iv, male athero4mo rabbits, N = 9, read-out: Tissue radioactivity, adrenal gland): 0.012 %ID/g
- tissue uptake at 200 min ([1]; adrenal gland, iv, male control rabbits, N = 6, read-out: Tissue radioactivity, adrenal gland): 0.003 %ID/g
- tissue uptake at 200 min ([1]; bladder, intravenous, male athero4mo rabbits, N = 9, read-out: Tissue radioactivity, bladder): 0.075 %ID/g
- tissue uptake at 200 min ([1]; bladder, intravenous, male control rabbits, N = 6, read-out: Tissue radioactivity, bladder): 0.053 %ID/g
- tissue uptake at 200 min ([1]; bone marrow, intravenous, male athero4mo rabbits, N = 9, read-out: Tissue radioactivity, bone marrow): 0.006 %ID/g
- tissue uptake at 200 min ([1]; bone marrow, intravenous, male control rabbits, N = 6, read-out: Tissue radioactivity, bone marrow): 0.003 %ID/g
- tissue uptake at 200 min ([1]; fat, intravenous, male athero4mo rabbits, N = 9, read-out: Tissue radioactivity, fat): 0.002 %ID/g
- tissue uptake at 200 min ([1]; heart, iv, male athero4mo rabbits, N = 9, read-out: Tissue radioactivity, heart): 0.006 %ID/g
- tissue uptake at 200 min ([1]; heart, iv, male control rabbits, N = 6, read-out: Tissue radioactivity, heart): 0.003 %ID/g
- tissue uptake at 200 min ([1]; kidneys, iv, male athero4mo rabbits, N = 9, read-out: Tissue radioactivity, kidneys): 0.157 %ID/g
- tissue uptake at 200 min ([1]; kidneys, iv, male control rabbits, N = 6, read-out: Tissue radioactivity, kidneys): 0.128 %ID/g
- tissue uptake at 200 min ([1]; large intestine, iv, male athero4mo rabbits, N = 9, read-out: Tissue radioactivity, large intestine): 0.01 %ID/g
- tissue uptake at 200 min ([1]; large intestine, iv, male control rabbits, N = 6, read-out: Tissue radioactivity, large intestine): 0.005 %ID/g
- tissue uptake at 200 min ([1]; liver, intravenous, male athero4mo rabbits, N = 9, read-out: Tissue radioactivity, liver): 0.006 %ID/g
- tissue uptake at 200 min ([1]; lungs, iv, male athero4mo rabbits, N = 9, read-out: Tissue radioactivity, lungs): 0.015 %ID/g
- tissue uptake at 200 min ([1]; lungs, iv, male control rabbits, N = 6, read-out: Tissue radioactivity, lungs): 0.005 %ID/g
- tissue uptake at 200 min ([1]; lymph node, iv, male athero4mo rabbits, N = 9, read-out: Tissue radioactivity, lymph node): 0.013 %ID/g
- tissue uptake at 200 min ([1]; lymph node, iv, male control rabbits, N = 6, read-out: Tissue radioactivity, lymph node): 0.005 %ID/g
- tissue uptake at 200 min ([1]; muscle, iv, male athero4mo rabbits, N = 9, read-out: Tissue radioactivity, muscle): 0.003 %ID/g
- tissue uptake at 200 min ([1]; muscle, iv, male control rabbits, N = 6, read-out: Tissue radioactivity, muscle): 0.001 %ID/g
- tissue uptake at 200 min ([1]; pancreas, intravenous, male control rabbits, N = 6, read-out: Tissue radioactivity, pancreas): 0.005 %ID/g
- tissue uptake at 200 min ([1]; small intestine, iv, male athero4mo rabbits, N = 9, read-out: Tissue radioactivity, small intestine): 0.021 %ID/g
- tissue uptake at 200 min ([1]; small intestine, iv, male control rabbits, N = 6, read-out: Tissue radioactivity, small intestine): 0.025 %ID/g
- tissue uptake at 200 min ([1]; spleen, intravenous, male athero4mo rabbits, N = 9, read-out: Tissue radioactivity, spleen): 0.012 %ID/g
- tissue uptake at 200 min ([1]; spleen, intravenous, male control rabbits, N = 6, read-out: Tissue radioactivity, spleen): 0.015 %ID/g
- tissue uptake at 200 min ([1]; stomach, intravenous, male athero4mo rabbits, N = 9, read-out: Tissue radioactivity, stomach): 0.053 %ID/g
- tissue uptake at 200 min ([1]; thoracic aorta, iv, male athero4mo rabbits, N = 9, read-out: Tissue radioactivity, thoracic aorta): 0.015 %ID/g
- tissue uptake at 200 min ([1]; thoracic aorta, iv, male control rabbits, N = 6, read-out: Tissue radioactivity, thoracic aorta): 0.004 %ID/g

SMILES: C[C@@H](O)[C@H](NC(=O)[C@@H]1CSSC[C@H](NC(=O)[C@@H](Cc2ccccc2)NC(=O)CN2CCN(CC(=O)O)CCN(CC(=O)O)CCN(CC(=O)O)CC2)C(=O)N[C@@H](Cc2ccc(O)cc2)C(=O)N[C@H](Cc2c[nH]c3ccccc23)C(=O)N[C@@H](CCCCN)C(=O)N[C@@H]([C@@H](C)O)C(=O)N1)C(=O)O [[^64Cu]Cu-DOTATATE, metal not drawn]
- blood radioactivity contained in plasma ([2]; atherosclerotic Apoe^−/− mice): 88.7 ± 0.9%
- blood radioactivity contained in plasma ([2]; control C57Bl/6 mice): 83.4 ± 0.6%
- %fast ([3]; Apoe^-/- mice, N = 6): 11.27%
- %slow ([3]; Apoe^-/- mice, N = 6): 88.73%
- Weighed t1/2 (weighted blood half-life) ([3]; Apoe^-/- mice, N = 6): 6.83 min
- t1/2 fast ([3]; Apoe^-/- mice, N = 6): 0.557 min
- t1/2 slow ([3]; Apoe^-/- mice, N = 6): 7.627 min
- %fast ([3]; C57Bl/6 mice, N = 7): 79.14%
- %slow ([3]; C57Bl/6 mice, N = 7): 20.86%
- Weighed t1/2 (weighted blood half-life) ([3]; C57Bl/6 mice, N = 7): 4.83 min
- t1/2 fast ([3]; C57Bl/6 mice, N = 7): 1.939 min
- t1/2 slow ([3]; C57Bl/6 mice, N = 7): 15.81 min
- tissue uptake ([4]; atherosclerotic Apoe^−/− mice after PET/CT): 7.4 %ID/g
- tissue uptake ([4]; control C57Bl/6 mice after PET/CT): 3.5 %ID/g
